Experimental data reported in article PMC8808171, “Nonselective TRPC channel inhibition and suppression of aminoglycoside-induced premature termination codon readthrough by the small molecule AC1903” (The Journal of Biological Chemistry, 2022).

Molecular target: T1, TRPC5:C5 (Homo sapiens, UniProt Q9UL62)
T1 construct: expressed in transfected cells; host or cells: HEK T-REx (tetracycline-induced)
T1 sequence (Q9UL62 1-973): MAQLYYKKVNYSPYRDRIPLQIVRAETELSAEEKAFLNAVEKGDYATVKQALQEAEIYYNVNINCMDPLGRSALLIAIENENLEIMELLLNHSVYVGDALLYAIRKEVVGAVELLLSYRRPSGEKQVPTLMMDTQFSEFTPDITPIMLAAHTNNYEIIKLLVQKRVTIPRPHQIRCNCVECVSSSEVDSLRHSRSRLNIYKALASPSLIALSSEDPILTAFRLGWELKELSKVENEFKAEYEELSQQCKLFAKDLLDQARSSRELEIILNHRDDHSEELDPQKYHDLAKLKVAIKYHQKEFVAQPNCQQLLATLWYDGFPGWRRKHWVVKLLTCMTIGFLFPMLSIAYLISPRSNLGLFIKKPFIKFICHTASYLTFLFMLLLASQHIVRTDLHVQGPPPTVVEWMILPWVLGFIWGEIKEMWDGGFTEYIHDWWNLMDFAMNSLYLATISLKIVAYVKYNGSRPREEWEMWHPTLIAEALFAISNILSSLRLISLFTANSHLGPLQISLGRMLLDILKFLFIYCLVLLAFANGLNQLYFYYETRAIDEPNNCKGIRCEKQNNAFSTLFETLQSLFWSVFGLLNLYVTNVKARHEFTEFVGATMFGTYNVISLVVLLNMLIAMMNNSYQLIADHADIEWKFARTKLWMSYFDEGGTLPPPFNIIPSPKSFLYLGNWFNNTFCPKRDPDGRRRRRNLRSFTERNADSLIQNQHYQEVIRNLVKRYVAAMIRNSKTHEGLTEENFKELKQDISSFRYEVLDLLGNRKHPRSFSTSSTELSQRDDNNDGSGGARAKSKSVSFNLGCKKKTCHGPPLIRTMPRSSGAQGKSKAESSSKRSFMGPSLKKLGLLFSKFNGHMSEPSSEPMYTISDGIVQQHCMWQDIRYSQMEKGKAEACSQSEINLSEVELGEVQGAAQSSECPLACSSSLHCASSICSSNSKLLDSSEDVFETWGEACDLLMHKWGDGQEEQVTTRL
Experiment: [Ca2+]i recordings (Fura-2), TRPC5:C5 in HEK T-REx cells
Assay type: cell-based
Conditions: for IC50: HEK T-REx, 30 min preincubation
Procedure: Based on the findings described above, we wondered whether AC1903—which is typically used as a TRPC5 inhibitor at concentrations of 30–100 μM in cellular assays ([29], [56])—might have limited selectivity for TRPC5 channels and whether its effect on intracellular G418 levels and PTC readthrough might be the consequence of inhibition of other or multiple targets. All well-characterized TRPC channel inhibitors reported to date modulate multiple TRP(C) channels ([34], [35], [36]). […] Because limited data for the selectivity of AC1903 are available in the public domain, we decided to profile AC1903 against a selection of calcium-permeable cation channels by intracellular calcium ([Ca^2+]i) recordings using well-characterized cell lines and TRP channel activators ([46], [57], [58]), and the Ca^2+ indicator Fura-2. In these assays, cells (HEK 293, HEK T-REx, or CHO) overexpressing the relevant ion channel protein and loaded with Fura-2 AM (a cell-permeable precursor of Fura-2) were preincubated with various concentrations of AC1903 or vehicle (DMSO) for 30 min. Then, changes in ratiometric fluorescence (from background) were recorded upon addition of the respective ion channel activator.
Figure 4 AC1903 inhibits multiple TRP channels.A and C, representative [Ca^2+]i measurements from a single 96-well plate (N = 6; mean ± SD over technical replicates) showing inhibition of EA-mediated [Ca^2+]i responses by 0.1 to 100 μM AC1903 in (Tet+) HEK T-REx cells expressing TRPC5 (A) or TRPC4 (C). B and D, concentration–response data for experiments in (A) and (C) (scatter plots showing normalized data for three independent experiments; n/N = 3/18). Responses were calculated at 250 to 295 s compared to [Ca^2+]i at baseline (0–55 s). E and G, representative [Ca^2+]i measurements from a single 96-well plate (N = 6; mean ± SD over technical replicates) showing inhibition of OAG-mediated [Ca^2+]i responses by 0.1 to 100 μM AC1903 in (Tet+) HEK T-REx cells expressing TRPC3 (E) and WT HEK 293 cells transiently expressing TRPC6 (G). F and H, concentration–response data for experiments in (E) and (G) (scatter plots showing normalized data for three independent experiments; n/N = 3/18). Responses were calculated at 90 to 110 s compared with [Ca^2+]i at baseline (0–55 s). I, representative [Ca^2+]i measurements from a single 96-well plate (N = 6; mean ± SD over technical replicates) showing inhibition of the 4α-PDD-mediated [Ca^2+]i response by 0.1 to 100 μM AC1903 in CHO cells stably expressing TRPV4. J, concentration–response data for experiments in (I) (scatter plot showing normalized data for three independent experiments; n/N = 3/18). Responses were calculated at 290 to 300 s compared with [Ca^2+]i baseline (0–55 s). EA, (-)-englerin A; TRPC, transient receptor potential canonical. […]

For `c1ccc(Cn2c(NCc3ccco3)nc3ccccc32)cc1` [AC1903], which IC50 (activator EA (30 nM)) is on record?
The IC50 was 18 µM.

And the IC50 (activator S1P (10 μM))?
Its IC50 is 3.5 µM.

What about the Hill slope (activator EA (30 nM)) of the same molecule?
The Hill slope was -1.8.

And the Hill slope (activator S1P (10 μM))?
Its Hill slope is -1.6.
